Data as given in the NIST ThermoML archive (doi:10.1021/je900730w).
Numbers after ± are expanded uncertainties.

Key:
[1] = for mass density: 293.15 K, 101.33 kPa, Liquid
[2] = refractive index (Na D-line) (dimensionless); conditions: 293.15 K; 101.33 kPa; Liquid; Standard Abbe refractometry
[3] = Molar enthalpy of transition or fusion; conditions: Crystal; DSC

SMILES | refractive index [2] | Normal melting temperature ([1]; Crystal, DTA) [°C] | Molar enthalpy of transition or fusion [3] [kcal/mol] | mass density [1] [kg/m3] | mass density ([1]; Vibrating tube method) [kg/m3]
Cc1ccccc1 [toluene] | 1.4967 ± 0.0007 | – | – | – | 866 ± 1
CCOCCO [2-ethoxyethan-1-ol] | 1.4065 ± 0.0007 | – | – | – | 929 ± 1
CC(C)=O [acetone] | 1.359 ± 0.0007 | – | – | – | 790 ± 1

Further lines, with some results ahead:

refractive index [2] | Normal melting temperature ([1]; Crystal, DTA) [°C] | Molar enthalpy of transition or fusion [3] [kcal/mol] | mass density [1] [kg/m3] | SMILES | mass density ([1]; Vibrating tube method) [kg/m3]
– | 214.60 ± 0.5 | 8.91 ± 0.239 | – | O=P(c1ccccc1)(c1ccccc1)c1cc(O)ccc1O [(2,5-dihydroxyphenyl)diphenyl phosphine oxide] | –
1.3301 ± 0.0007 | – | – | 792 ± 1 | CO [methanol] | –
1.366 ± 0.0007 | – | – | – | CCO [ethanol] | 790 ± 1
